Consider 1 compound from publication PMC3929365, “Benzimidazoisoquinolines: A New Class of Rapidly Metabolized Aryl Hydrocarbon Receptor (AhR) Ligands that Induce AhR-Dependent Tregs and Prevent Murine Graft-Versus-Host Disease” (PLoS ONE, 2014).

The structures appear in SMILES notation.

The subject of data set [1] is activated T cells. Put plainly: T cell proliferation in vitro (CFSE dilution, anti-CD3/anti-CD28). The class given is cell-based, C57Bl/6 mice. The following applies: 100 nM, 72 h, anti-CD3 and anti-CD28. On the procedure: A. Splenocytes from C57Bl/6 mice were labeled with CFSE and activated in vitro with anti-CD3 and anti-CD28 in the presence of 100 nM 10-Cl-BBQ or DMSO for 72 h. B. C57Bl/6 donor T cells were labeled with CFSE and injected into B6D2F1 host mice to initiate the GVH response. Host mice (n = 5 per group) were treated with vehicle or 10-Cl-BBQ i.p. (10 mg/kg/d) for two days. Donor cells were identified by gating on CD4^+CFSE^+ cells. […] (TIF) Click here for additional data file.

Data set [2] can be described thus: Serum liver chemistry profile. The class given is in vivo, B6D2F1 mice. The following applies: 10 mg/kg/day i.p., 2 days. On the procedure:
Supplementary file pone.0088726.s004.docx: Table S1 Serum liver chemistry profile. B6D2F1 mice were give 10 mg/kg/day of 10-Cl-BBQ or vehicle i.p. After 2 days serum was collected and analyzed. n = 5 mice per treatment, average values are shown(± standard deviation). ALT – Alanine transaminase, SGPT – serum glutamic pyruvate transaminase. (DOCX) Click here for additional data file.
Table S1. Serum liver chemistry profile. B6D2F1 mice were give 10 mg/kg/day of 10-Cl-BBQ or vehicle i.p. After 2 days serum was collected and analyzed. n = 5 mice per treatment, average values are shown(± standard deviation). ALT – Alanine transaminase, SGPT – serum glutamic pyruvate transaminase.

The subject of data set [3] is CYP1A1 mRNA. Put plainly: Hepatic CYP1A1 mRNA induction after single i.p. dose. The following applies: 10 mg/kg i.p. The format is in vivo, C57BL/6 mice. On the procedure: RNA was isolated from lymph nodes of B6D2F1 host mice with the RNeasy Mini Kit (Qiagen). cDNA was prepared from at least 1 µg RNA in a 2-step reaction using the ReactionReady First Strand cDNA synthesis kit (SA Biosciences) according to the manufacturer’s instructions and Superscript III reverse-transcriptase (Life Technologies). The qPCR reaction was carried out on an ABI PRISM 7500 Real-Time PCR system (Applied Biosystems). The reaction mixture consisted of SYBR Green/ROX qPCR Master Mix (SA Bioscience), 2–10 ng-RNA equivalent cDNA and 1 µl of the gene-specific commercial primer sets (SA Biosciences). The following conditions were used: 10 min at 95°C (1 cycle), 15 s at 95°C and 1 min at 60°C (40 cycles). The melt-curve was generated at 95°C for 15 s. The process was validated by utilizing a no-reverse-transcriptase control. The raw data was normalized to Actb and the fold-change was calculated by the ΔΔCt method using vehicle-treated sample values as the control.
(§1) Figure 2 Pharmacokinetics of 10-Cl-BBQ. C57BL/6 mice were given 10 mg/kg 10-Cl-BBQ by i.p. injection. A) Blood was collected at the indicated times by cardiac puncture. The serum was processed to remove protein and the samples were analyzed by QTRAP 4000 LC/MS/MS. The serum concentration of 10-Cl-BBQ was determined from a standard curve based on known concentrations of 10-Cl-BBQ. B) Liver tissue was harvested and processed for mRNA analysis. CYP1A1 gene expression was determined relative to the β-actin gene, and the fold-induction was determined by the ΔΔCt method using the vehicle-treated samples as a control. The mean values are shown with SEM for 2–3 mice per time point.

Data set [4] deals with AhR. Put plainly: Electrophoretic mobility shift assay, binding of AhR to XRE. The format is biochemical, mouse. The following applies: 10 nM, 2 h, Hepa1c1c7 whole cell lysate. On the procedure: (§2) Figure 1 10-Cl-BBQ is a potent AhR ligand. A) Structure of 10-Cl-BBQ. […] C) Hepa-1 cells expressing endogenous AhR were transfected with an AhR-regulated luciferase reporter gene (xenobiotic responsive element (XRE)-MMTVpromoter-Luc) and the reporter gene activity was measured after 12 h of treatment with 1 nM TCDD or the indicated concentrations of 10-Cl-BBQ. D) Alteration in proteolytic pattern of AhR by 10-Cl-BBQ. Whole cell lysate (45 µg of protein) from mouse hepatoma Hepa1c1c7 cells was incubated with 100 nM 10-Cl-BBQ or 0.1% DMSO for 1 h at RT and proteolyzed by 1 µg/ml subtilisin for 1, 2, 4, and 8 min at RT. Proteolytic cleavage products of AhR were analyzed by immunoblot. E) Electrophoretic mobility shift assay showing the ligand-stimulated binding of AhR to XRE. Whole cell lysate (18 µg of protein) from mouse hepatoma Hepa1c1c7 cells was incubated with 10 nM 10-Cl-BBQ or 0.1% DMSO for 2 h at room temperature and ^32P-labeled oligonucleotide containing XRE for 20 min at room temperature. The samples were electrophoresed on a native polyacrylamide gel and the signal was visualized by Phosphor Imager. Unlabeled competitor XRE or antibody (Ab) against AhR or Arnt was co-incubated with ^32P-labeled oligonucleotide.
A general note: Mobility shift assays separate free from complexed probe on a gel.

Data set [5] can be described thus: Pharmacokinetics: serum concentration after single i.p. injection. The format is in vivo, C57Bl/6 mice. The following applies: 10 mg/kg i.p., mouse. On the procedure: C57Bl/6 mice were injected i.p. with 10 mg/kg 10-Cl-BBQ. At defined time points, blood was collected by cardiac puncture. Serum was harvested and protein was precipitated by adding a 4-fold volume of ice-cold acetonitrile. The supernatant was collected and analyzed on a QTRAP 4000 LC/MS/MS instrument using an Agilent C8 UPLC column. The serum concentration of 10-Cl-BBQ was determined using a standard curve prepared using dilutions of 10,000; 5,000; 1,000; 500; 100; 50 and 10 pg/ml of 10-Cl-BBQ. The mean values (n = 2–3 mice per time point) are shown with SEM. Pharmacokinetic parameters were calculated using PKsolver software.
as §1

Data set [6] concerns AhR.
Procedure: The AhR reporter gene assay was performed as previously described (20–22).
B) Hepa1 cells expressing endogenous AhR were transfected with a XRE-luciferase reporter gene. […] The mean luciferase activity is shown with SEM. C) Dose response curves for the competitive inhibition of [^3H] 3-MC binding to AhR.
3-methylcholanthrene (3-MC) to AhR (Fig. 5C).
Data set [7] concerns AhR. Put plainly: Cytosol to nuclear translocation of AhR in Hepa-1 cells. The class given is cell-based, mouse. The following applies: 10 nM, 1 h.
The test system of data set [8] is AhR. Put plainly: Subtilisin proteolysis pattern of AhR in Hepa1c1c7 whole cell lysate. The class given is biochemical, mouse. The following applies: 100 nM, 1 h, 1 µg/ml subtilisin. On the procedure:
as §2

In the case of `O=c1c2cccc3cccc(c32)c2nc3ccc(Cl)cc3n12` [10-Cl-BBQ, 10-chloro-7H-benzimidazo[2,1-a]benzo[de]isoquinolin-7-one], the “proliferation of activated T cells in vitro” value in data set [1] was “did not inhibit proliferation”. Moreover, the “acute hepatic toxicity in mice” value in data set [2] is “nor did it induce acute hepatic toxicity”. For the same compound, in data set [2] (serum, mean (± SD), n = 5), the “ALT (SGPT)” value is given as 34.4 (± 10.4) U/l, the Albumin is recorded as 3.3 (± 0.1) g/dl, the “Alkaline Phosphatase” value is recorded as 51.4 (± 8.3) U/l and the Bilirubin was 0.12 (± 0) mg/dl. Moreover, in data set [2] (serum, mean (± SD), n = 5), the “Blood Urea Nitrogen” value is given as 10.2 (± 1.5) mg/dl, the Cholesterol was 119.2 (± 10.4) mg/dl and the Glucose was 201.2 (± 10.4) mg/dl. The “Gamma Glutamyl Transferase” value in data set [2] (serum, n = 5) amounted to 0 U/l. Besides, the “Cyp1a1 mRNA induction in hepatic tissue” value in data set [3] (4 hours) is on record as 2 fold. In addition, in data set [3] (20 hr), the “Cyp1a1 mRNA induction in hepatic tissue” value was “up to 7 fold”. The “Cyp1a1 mRNA induction in hepatic tissue” value in data set [3] (48 h) was “no longer apparent”. In addition, the “DNA binding of AhR (XRE)” value in data set [4] is “specifically induced DNA binding of AhR”. Further, in data set [5], the “absorption rate constant (ka)” value was 1.2 h⁻¹, the “time required to reach Cmax (Tmax)” value is 1.64 h and the “total clearance/bioavailability (CL/F)” value was 32.5 mL/min. Besides, the half-life in data set [5] (C57Bl/6, serum, ip, one compartment model) is approximately 2 h. Also, the AUC(0-inf) in data set [5] (C57Bl/6, serum, ip, read-out: area under the concentration-time curve (AUC0-∞)) came out at 102 ng·h/mL. Also, the Cmax in data set [5] (C57Bl/6, serum, ip, read-out: maximum concentration reached in serum (Cmax)) came to 21.5 ng/mL. Moreover, the Vd/F in data set [5] (C57Bl/6, serum, ip, read-out: volume of distribution/bioavailability (V/F)) stood at 5.66 L. In addition, the IC50 in data set [6] worked out at 2.6 nM. For the same compound, the “cytosol to nuclear translocation of AhR” value in data set [7] is “promoted cytosol to nuclear translocation of AhR”. The “proteolysis of AhR” value in data set [8] is listed as “delayed its proteolysis”.

For orientation: half-life means the time in which the quantity being followed falls by half. A low value points to rapid decline. As a reminder, the IC50 is the point on the concentration scale where inhibition reaches its midpoint. Low readings indicate inhibition by little substance, high ones a need for much substance.
